Laboratory results taken from publication PMC6974726, “Acetylation changes tau interactome to degrade tau in Alzheimer’s disease animal and organoid models” (Aging Cell, 2019).

Assays:
[1] = test system: HDAC 1–11; assay: HDAC enzymatic assay panel (IC50 heat maps); format: biochemical; details: HDAC 1–11, recombinant human enzymes
Method: Data are expressed as mean ± SEM.
The percentages of enzyme activity (relative to DMSO controls) and IC50 values were calculated using the GraphPad Prism 4 program based on a sigmoidal dose-response equation.

[2] = test system: HDAC6; design: method as in Fan, Huang, Liou, & Yang, 2018; details: ref Fan, Huang, Liou, & Yang, 2018; cited from earlier work

Row | SMILES | selectivity among HDAC isoforms (heat maps of IC50 values) [1] | acetylation of Hsp90 [2] | ubiquitination of phosphorylated tau [2]
1 | Cc1[nH]c2ccccc2c1CCNCc1ccc(/C=C/C(=O)NO)cc1 [panobinostat] | no selectivity among HDAC isoforms |  | 
2 | O=C(NO)c1ccc(CNc2cccc3cccnc23)cc1 [MPT0G211] |  | increased | increased
